Test results taken from US6355665B1, “1H-4(5)-substituted imidazole derivatives, their preparation and their use as histamine H3 receptor ligands” (James Black Foundation Limited, priority 1997, dated 2002).
Where two headings read alike, the source gives them in different places.

What was measured:
Histamine H3 receptor [1] = molecular target: T1, Histamine H3 receptor (Cavia porcellus, UniProt Q9JI35); assay: Histamine H3 radioligand binding assay, guinea pig cortex ([3H]-R-α-methylhistamine); design: The cortex was dissected, weighed and homogenised in ice-cold 20 mM Hepes-NaOH buffer; from tissue; host or cells: guinea pig cerebral cortex membranes
T1 sequence (Q9JI35 whole entry): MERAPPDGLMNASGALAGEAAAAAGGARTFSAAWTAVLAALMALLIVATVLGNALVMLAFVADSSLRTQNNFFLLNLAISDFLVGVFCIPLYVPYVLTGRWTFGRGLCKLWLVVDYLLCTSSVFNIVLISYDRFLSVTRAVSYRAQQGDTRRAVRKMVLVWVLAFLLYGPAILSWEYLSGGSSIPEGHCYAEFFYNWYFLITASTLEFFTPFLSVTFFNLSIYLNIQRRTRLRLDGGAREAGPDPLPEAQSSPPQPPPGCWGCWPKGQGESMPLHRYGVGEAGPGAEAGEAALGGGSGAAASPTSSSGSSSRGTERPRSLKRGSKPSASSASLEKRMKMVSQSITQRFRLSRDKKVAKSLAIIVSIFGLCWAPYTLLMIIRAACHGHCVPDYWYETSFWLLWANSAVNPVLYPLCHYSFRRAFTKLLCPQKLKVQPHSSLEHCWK
Procedure: Histamine H3 Radioligand Binding Assay—Guinea Pig Cortex
Male Dunkin Hartley guinea pigs (200-300 g) were used. The whole brain was removed and immediately placed in ice-cold 20 mM Hepes-NaOH buffer (pH7.4 at 21±3° C.). The cortex was dissected, weighed and homogenised in ice-cold 20 mM Hepes-NaOH buffer (pH7.4 at 21±3° C.) (50 ml/guinea-pig cortex) using a polytron (Kinematica AG; PT-DA 3020/2TS, 3×3 s). The homogenate was centrifuged at 100×g for 5 min and the supernatants pooled and stored at 4° C. The pellets were rehomogenised in fresh ice-cold buffer (80 ml) and recentrifuged (100×g for 5 min). The supernatants were pooled and pellets rehomogenised and recentrifuged (100×g for 5 min). All supernatants were pooled and centrifuged at 39,800×g for 12 min at 4° C. The final pellet was resuspended in 20 mM Hepes-NaOH buffer (pH7.4 at 21±3° C.) to a tissue concentration of 7.5 mg.ml^−1, using a teflon-in-glass homogeniser.
Incubation Conditions and Data Analysis
These were essentially identical to those used for the guinea pig ileum myenteric plexus assay described above, except that the final assay concentration of [^3H]-R-α-methylhistamine was 0.1 nM. Typical variance in this assay is ±0.12 log units.

Histamine H3 receptor [2] = molecular target: T1, Histamine H3 receptor; assay: ileal longitudinal muscle, myenteric plexus functional assay (rightward shift of R-(α)-methylhistamine E/[A] curves, Schild); assay type: cell-based; design: the longitudinal muscle layer and adhering myenteric plexus was teased away; from tissue; host or cells: guinea pig ileal longitudinal muscle with myenteric plexus (organ bath); settings: guinea pig ileum longitudinal muscle myenteric plexus, electrically stimulated; antagonism of R-(α)-methylhistamine; typical variance ±0.15 log units; read-out: pKB (functional assay) - ileum (converted)
Procedure: The biological activity of the compounds of the examples was measured using the ileal longitudinal muscle, myenteric plexus assay described by Paton and Aboo Zar (J. Physiol. 1968, 194, 13-33). Male Dunkin-Hartley guinea pigs (250-300 g) were employed. Briefly, a 50 cm portion of ileum proximal to the caecum was removed, after discarding the terminal 20 cm. Ileal segments (3 cm) were cleaned by passing Krebs-Henseleit buffer containing 3 μM mepyramine gently through the ileum using a Pasteur pipette (size: 13.8 cm length, 0.65 cm diameter). To avoid unnecessary damage to the tissue, Krebs-Henseleit buffer was passed through the ileal segment, while it was lying horizontally on a petri dish. Therefore, the ileum was not over-distended and the buffer flowed through with ease. Each segment was then passed over a Pasteur pipette and the longitudinal muscle layer and adhering myenteric plexus was teased away using moist cotton wool, by stroking tangentially away from the mesenteric attachment. The tissues were suspended in 20 ml organ baths containing Krebs-Henseleit buffer at 37±1° C. and gassed with 95% CO2/5% O2. The tissues were ligated to two parallel stainless steel wires, situated between two platinum electrodes (0.76 cm length, 0.06 cm diameter). All measurements were recorded isometrically (Grass FTO3 transducer). Following an initial loading tension of 1 g, the tissues were stimulated with electrical pulses at a frequency of 0.1 Hz and a pulse duration of 0.5 msec, as described by Kosterlitz & Watt (Br. J. Pharmacol. 1968, 266-276). Initially, the tissues were stimulated at supramaximal (1.3 fold times maximal) voltage for a period of 30 min and then the tissues were washed and re-stimulated. A “sighter dose” of the selective histamine H3-receptor agonist, R-(α)-methylhistamine (0.3 μM) (Arrang et al. Nature, 1987, 117-123), was administered. Upon generation of response, the “sighter dose” was removed from the tissues by “washout” (6 washes over 60 min) and during this period the electrical stimulation was switched off. The tissues were then re-stimulated and allowed to stabilise prior to the addition of drug treatments, which were allocated on a randomised block basis to the organ baths. Following the incubation period, a single cumulative E/[A] curve was obtained. The experimental E/[A] curve data was expressed as the percentage inhibition of the peak height of electrically-stimulated contraction. Antagonist affinity values were calculated from the degree of rightward shift of the R-(α)-methylhistamine E/[A] curves using Schild's methods (Arunlakshana & Schild Br. J. Pharmacol. 1959, 48-58). Typical variance in this assay is ±0.15 log units.

[3] = guinea pig cortex membranes, [3H]-R-α-methylhistamine 0.1 nM, typical variance ±0.12 log units, read-out: pKI (binding assay) - cortex (converted)

Compound | Ki (Histamine H3 receptor [1]; [3]) [nM] | Kb (Histamine H3 receptor [2]) [nM] | Ki (Histamine H3 receptor [1]) [nM]
O=S(=O)(CC(O)CCc1c[nH]cn1)NCc1ccc(Cl)cc1 (stereo not drawn) [Example 2, N-(4-Chlorobenzyl)-2-hydroxy-4-(1H-imidazol-4-yl)-1-butanesulfonamide] | 275 | 240 | –
O=C(CCc1c[nH]cn1)CS(=O)(=O)NCc1ccc(Cl)cc1 [Example 4, N-(4-Chlorobenzyl)-2-oxy-4-(1H-imidazol-4-yl)-1-butanesulfonamide] | 61.7 | 257 | –
O=S(=O)(CCCCCCc1c[nH]cn1)NCc1ccc(Cl)cc1 [Example 7, N-(4-Chlorobenzyl)-6-(1H-imidazol-4-yl)-1-hexanesulfonamide] | 2.88 | 5.13 | –
O=S(=O)(CC(O)CCCCc1c[nH]cn1)NCc1ccc(Cl)cc1 (stereo not drawn) [Example 8, N-(4-Chlorobenzyl)-2-hydroxy-6-(1H-imidazol-4-yl)-1-hexanesulfonamide] | 4.27 | 12.6 | –
O=S(=O)(CCCCc1c[nH]cn1)NCCc1ccc(Cl)cc1 [Example 9, N-(4-Chlorophenethyl)-4-(1H-imidazol-4-yl)-1-butanesulfonamide] | 44.7 | 302 | –
O=S(=O)(CC(O)CCc1c[nH]cn1)NCCc1ccc(Cl)cc1 (stereo not drawn) [Example 10, N-(4Chlorophenethyl)-2-hydroxy-4-(1H-imidazol-4-yl)-1-butanesulfonamide] | 741 | – | –
O=S(=O)(CCCCCc1c[nH]cn1)NCCc1ccc(Cl)cc1 [Example 11, N-(4-Chlorophenethyl)-5-(1H-imidazol-4-yl)-1-pentanesulfonamide] | 7.24 | 29.5 | –
O=S(=O)(CCCCCc1c[nH]cn1)NCc1ccccc1 [Example 13, N-Benzyl-5-(1H-imidazol-4-yl)-1-pentanesulfonamide] | 8.91 | 58.9 | –
O=S(=O)(CC(O)CCCc1c[nH]cn1)NCc1ccccc1 (stereo not drawn) [Example 14, N-Benzyl-2-hydroxy-5-(1H-imidazol-4-yl)-1-pentanesulfonamide] | 81.3 | 724 | –
O=S(=O)(CCCCCc1c[nH]cn1)NCc1ccc(Br)cc1 [Example 15, N-(4-Bromobenzyl)-5-(1H-imidazol-4-yl)-1-pentanesulfonamide] | 0.891 | 3.39 | –
O=S(=O)(CC(O)CCCc1c[nH]cn1)NCc1ccc(Br)cc1 (stereo not drawn) [Example 16, N-(4-Bromobenzyl)-2-hydroxy-5-(1H-imidazol-4-yl)-1-pentanesulfonamide] | 1.12 | 18.2 | –
O=S(=O)(CCCCCc1c[nH]cn1)NCC1CCCCC1 [Example 17, N-Cyclohexylmethyl-5-(1H-imidazol-4-yl)-1-pentanesulfonamide] | 21.9 | 46.8 | –
O=S(=O)(CC(O)CCCc1c[nH]cn1)NCC1CCCCC1 (stereo not drawn) [Example 18, N-Cyclohexylmethyl-2-hydroxy-5-(1H-imidazol-4-yl)-1-pentanesulfonamide] | 141 | 389 | –
O=S(=O)(CCCCCc1c[nH]cn1)NCc1ccccc1Cl [Example 19, N-(2-Chlorobenzyl)-5-(1H-imidazol-4-yl)-1-pentanesulfonamide] | 19.5 | 245 | –
O=S(=O)(CC(O)CCCc1c[nH]cn1)NCc1ccccc1Cl (stereo not drawn) [Example 20, N-(2-Chlorobenzyl)-2-hydroxy-5-(1H-imidazol-4-yl)-1-pentanesulfonamide] | 126 | 331 | –
O=S(=O)(CCCCCc1c[nH]cn1)NCc1cccc(Cl)c1 [Example 21, N-(3-Chlorobenzyl)-5-(1H-imidazol-4-yl)-1-pentanesulfonamide] | 12 | 58.9 | –

Compound | Ki (Histamine H3 receptor [1]; [3]) [nM] | Kb (Histamine H3 receptor [2]) [nM] | Ki (Histamine H3 receptor [1]) [nM]
O=S(=O)(CC(O)CCCc1c[nH]cn1)NCc1cccc(Cl)c1 (stereo not drawn) [Example 22, N-(3-Chlorobenzyl)-2-hydroxy-5-(1H-imidazol-4-yl)-1-pentanesulfonamide] | 28.8 | 79.4 | –
O=S(=O)(CCCCc1c[nH]cn1)CCc1ccccc1 [Example 23, [4-(1H-Imidazol-4-yl)butyl]phenethyl sulfone] | – | 214 | 47.9
O=S(=O)(CCCCc1c[nH]cn1)CCc1ccc(Cl)cc1 [Example 24, [4-(1H-Imidazol-4-yl)butyl] 4-chlorophenethyl sulfone] | 5.62 | 10.7 | –
O=S(=O)(CCCCc1c[nH]cn1)Cc1ccc(Cl)cc1 [Example 25, [4-(1H-Imidazol-4-yl)butyl]-4-chlorobenzyl sulfone] | 18.6 | 30.2 | –
O=S(=O)(CCCCCc1c[nH]cn1)NCc1ccc(F)cc1 [Example 28, N-(4-Fluorobenzyl)-5-(1H-imidazol-4-yl)-1-pentanesulfonamide] | 7.08 | 19.1 | –
Cc1ccc(CNS(=O)(=O)CCCCCc2c[nH]cn2)cc1 [Example 29, N-(4-Methylbenzyl)-5-(1H-imidazol-4-yl)-1-pentanesulfonamide] | 6.17 | 25.7 | –
O=S(=O)(CCCCCc1c[nH]cn1)NCc1ccc(C(F)(F)F)cc1 [Example 30, N-(4-Trifluoromethylbenzyl)-5-(1H-imidazol-4-yl)-1-pentanesulfonamide] | 1.51 | 9.33 | –
O=S(=O)(CCCCCc1c[nH]cn1)NCC12CC3CC(CC(C3)C1)C2 [Example 31, N-(1-Adamantylmethyl)-5-(1H-imidazol-4-yl)-1-pentanesulfonamide] | 186 | 174 | –
O=S(=O)(/C=C/CCCc1c[nH]cn1)NCc1ccc(Cl)cc1 [Example 32, (E)-N-(4-Chlorobenzyl)-5-(1H-imidazol-4-yl)-1-pent-1-enesulfonamide] | 5.89 | 25.1 | –
O=S(=O)(C/C=C/CCc1c[nH]cn1)NCc1ccc(Cl)cc1 [Example 33, (E)-N-(4-Chlorobenzyl)-5-(1H-imidazol-4-yl)-1-pent-2-enesulfonamide] | 0.851 | 4.68 | –
CN(Cc1ccc(Cl)cc1)S(=O)(=O)CCCCCc1c[nH]cn1 [Example 34, N-(4-Chlorobenzyl)-N-methyl-5-(1H-imidazol-4-yl)-1-pentanesulfonamide] | 10.2 | 17.4 | –
NCCCN(Cc1ccc(Cl)cc1)S(=O)(=O)CCCCCc1c[nH]cn1 [Example 35, N-(4-Chlorobenzyl)-N-(3-aminopropyl)-5-(1H-imidazol-4-yl)-1-pentanesulfonamide] | 18.2 | 151 | –
O=S(=O)(CCCCCc1c[nH]cn1)N(Cc1ccccc1)Cc1ccc(Cl)cc1 [Example 36, N-Benzyl-N-(4-chlorobenzyl)-5-(1H-imidazol-4-yl)-1-pentanesulfonamide] | 200 | 1550 | –
O=[N+]([O-])CC(CCCc1c[nH]cn1)CS(=O)(=O)NCc1ccc(Cl)cc1 (stereo not drawn) [Example 37, N-(4-Chlorobenzyl)-2-nitromethyl-5-(1H-imidazol-4-yl)-1-pentanesulfonamide] | 6.61 | 20.4 | –
NC(CCCc1c[nH]cn1)CS(=O)(=O)NCc1ccc(Cl)cc1 (stereo not drawn) [Example 40, 2-Amino-N-(4-chlorobenzyl)-5-(1H-imidazol-4-yl)-1-pentanesulfonamide] | 22400 | – | –
